Experimental data: ChEMBL document CHEMBL1154508, “Discovery of GSK345931A: An EP(1) receptor antagonist with efficacy in preclinical models of inflammatory pain” (Bioorg Med Chem Lett, 2009)

How the values were obtained:
[1] = biological target: T1, Prostaglandin E2 receptor EP1 subtype (Homo sapiens, UniProt P34995); assay: Antagonist activity at EP1 receptor assessed as calcium mobilization by FLIPR assay; assay type: functional
T1 sequence (P34995 whole entry): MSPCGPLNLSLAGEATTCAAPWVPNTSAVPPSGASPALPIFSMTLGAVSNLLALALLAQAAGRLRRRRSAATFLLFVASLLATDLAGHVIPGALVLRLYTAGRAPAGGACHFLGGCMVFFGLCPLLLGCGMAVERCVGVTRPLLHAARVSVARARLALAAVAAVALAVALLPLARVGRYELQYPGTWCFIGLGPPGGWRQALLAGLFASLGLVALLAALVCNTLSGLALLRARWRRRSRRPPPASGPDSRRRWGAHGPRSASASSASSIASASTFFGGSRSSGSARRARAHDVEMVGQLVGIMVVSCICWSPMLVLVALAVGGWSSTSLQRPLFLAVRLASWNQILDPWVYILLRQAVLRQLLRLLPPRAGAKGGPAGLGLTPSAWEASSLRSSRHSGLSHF

[2] = tested on: Liver microsomes; assay: Metabolic stability assessed as intrinsic clearance per gram of rat liver microsomes; assay type: ADME, Microsome
[3] = tested on: Liver microsomes; assay: Metabolic stability assessed as intrinsic clearance per gram of human liver microsomes; assay type: ADME, Microsome
[4] = biological target: T2, Cytochrome P450 1A2 (Homo sapiens, UniProt P05177); assay: Inhibition of CYP1A2; assay type: ADME
T2 sequence (P05177 whole entry): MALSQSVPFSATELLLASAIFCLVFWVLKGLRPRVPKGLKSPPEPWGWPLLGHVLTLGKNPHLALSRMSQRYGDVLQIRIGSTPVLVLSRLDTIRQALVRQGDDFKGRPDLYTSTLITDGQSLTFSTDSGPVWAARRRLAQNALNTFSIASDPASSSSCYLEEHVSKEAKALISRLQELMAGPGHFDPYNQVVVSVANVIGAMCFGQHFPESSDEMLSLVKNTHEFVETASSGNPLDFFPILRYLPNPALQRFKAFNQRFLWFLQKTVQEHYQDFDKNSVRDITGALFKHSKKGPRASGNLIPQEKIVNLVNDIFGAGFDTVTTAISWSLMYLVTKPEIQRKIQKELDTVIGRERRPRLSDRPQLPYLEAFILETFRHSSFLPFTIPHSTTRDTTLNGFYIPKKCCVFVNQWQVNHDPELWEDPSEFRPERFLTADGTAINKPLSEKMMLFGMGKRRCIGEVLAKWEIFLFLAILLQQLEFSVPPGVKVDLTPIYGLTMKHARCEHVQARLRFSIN

[5] = biological target: Cytochrome P450 2C19 (Homo sapiens, UniProt P33261); assay: Inhibition of CYP2C19; assay type: ADME
Chain of Cytochrome P450 2C19 (P33261 whole entry): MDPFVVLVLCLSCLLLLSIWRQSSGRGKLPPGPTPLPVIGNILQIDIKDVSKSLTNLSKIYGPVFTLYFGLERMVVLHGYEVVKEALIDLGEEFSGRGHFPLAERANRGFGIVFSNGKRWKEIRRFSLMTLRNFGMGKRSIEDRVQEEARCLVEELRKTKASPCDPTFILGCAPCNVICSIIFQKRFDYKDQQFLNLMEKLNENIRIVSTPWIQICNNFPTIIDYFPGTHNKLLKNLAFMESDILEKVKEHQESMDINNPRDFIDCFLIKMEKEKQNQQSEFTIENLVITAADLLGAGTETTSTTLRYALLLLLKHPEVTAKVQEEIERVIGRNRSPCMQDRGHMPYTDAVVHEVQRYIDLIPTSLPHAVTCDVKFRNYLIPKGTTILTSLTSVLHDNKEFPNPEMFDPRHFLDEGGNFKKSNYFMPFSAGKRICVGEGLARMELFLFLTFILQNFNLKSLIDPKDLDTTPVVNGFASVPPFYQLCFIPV

[6] = biological target: Cytochrome P450 2C9 (Homo sapiens, UniProt P11712); assay: Inhibition of CYP2C9; assay type: ADME
Chain of Cytochrome P450 2C9 (P11712 whole entry): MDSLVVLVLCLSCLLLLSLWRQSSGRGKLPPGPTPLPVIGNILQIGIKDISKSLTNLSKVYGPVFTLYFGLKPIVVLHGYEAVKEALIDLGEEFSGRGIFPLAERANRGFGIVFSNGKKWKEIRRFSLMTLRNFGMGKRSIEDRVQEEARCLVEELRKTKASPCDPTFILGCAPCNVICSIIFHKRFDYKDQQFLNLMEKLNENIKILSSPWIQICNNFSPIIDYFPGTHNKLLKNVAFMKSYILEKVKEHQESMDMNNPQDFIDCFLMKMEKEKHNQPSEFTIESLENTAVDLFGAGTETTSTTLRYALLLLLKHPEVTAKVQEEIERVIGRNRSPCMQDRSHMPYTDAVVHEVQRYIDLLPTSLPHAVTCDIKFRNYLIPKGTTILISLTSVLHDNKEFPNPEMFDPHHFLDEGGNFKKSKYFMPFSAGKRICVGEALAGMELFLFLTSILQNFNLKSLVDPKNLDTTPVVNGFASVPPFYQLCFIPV

[7] = biological target: Cytochrome P450 2D6 (Homo sapiens, UniProt P10635); assay: Inhibition of CYP2D6; assay type: ADME
Chain of Cytochrome P450 2D6 (P10635 whole entry): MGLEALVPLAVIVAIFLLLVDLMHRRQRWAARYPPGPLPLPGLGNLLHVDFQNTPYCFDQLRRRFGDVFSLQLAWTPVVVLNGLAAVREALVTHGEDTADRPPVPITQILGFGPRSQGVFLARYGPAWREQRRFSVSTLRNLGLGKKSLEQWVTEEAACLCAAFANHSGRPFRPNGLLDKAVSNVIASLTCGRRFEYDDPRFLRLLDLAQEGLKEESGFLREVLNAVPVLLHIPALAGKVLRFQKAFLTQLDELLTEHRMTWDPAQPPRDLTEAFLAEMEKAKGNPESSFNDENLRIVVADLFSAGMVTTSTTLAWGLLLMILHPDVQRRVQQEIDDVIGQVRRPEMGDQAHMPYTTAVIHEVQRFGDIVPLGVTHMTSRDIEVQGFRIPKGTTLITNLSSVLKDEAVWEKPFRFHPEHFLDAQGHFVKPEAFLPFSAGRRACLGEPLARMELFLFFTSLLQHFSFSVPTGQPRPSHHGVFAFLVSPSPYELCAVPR

[8] = biological target: Cytochrome P450 3A4 (Homo sapiens, UniProt P08684); assay: Inhibition of CYP3A4; assay type: ADME
Chain of Cytochrome P450 3A4 (P08684 whole entry): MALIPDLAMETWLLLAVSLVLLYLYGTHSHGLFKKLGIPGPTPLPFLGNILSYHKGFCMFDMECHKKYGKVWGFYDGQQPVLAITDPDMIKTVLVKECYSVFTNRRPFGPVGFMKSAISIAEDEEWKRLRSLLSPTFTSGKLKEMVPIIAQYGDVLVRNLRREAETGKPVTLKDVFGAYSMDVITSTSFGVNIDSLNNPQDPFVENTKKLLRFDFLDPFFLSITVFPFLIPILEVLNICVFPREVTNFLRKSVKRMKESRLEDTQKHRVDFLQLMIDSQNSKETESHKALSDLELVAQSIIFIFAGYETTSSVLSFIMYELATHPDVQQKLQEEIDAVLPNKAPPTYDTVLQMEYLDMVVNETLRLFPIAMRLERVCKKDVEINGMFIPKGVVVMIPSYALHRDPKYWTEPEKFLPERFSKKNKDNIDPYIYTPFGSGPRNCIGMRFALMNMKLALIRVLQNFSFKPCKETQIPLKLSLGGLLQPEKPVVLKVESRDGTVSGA

[9] = Ratio of drug level in rat brain to blood at 0.28 mg/kg/hr, iv for 18 hrs at steady state; assay type: ADME, organism-based; parameters: route intravenous
[10] = biological target: T1, Prostaglandin E2 receptor EP1 subtype; assay: Binding affinity to EP1 receptor

What does the source list for `O=C(O)c1cccc(-c2ccccc2-c2cc(Cl)ccc2OCc2ccccc2)c1`?
Ki [1]: 31.6 nM; CL [2]: <= 0.5 ml/min/g; CL [3]: < 0.5 mL/min/g

Which IC50 [4] does the source give for `O=C(O)c1cccc(C2=C(c3cc(Cl)ccc3OCc3ccc(F)cc3F)CCC2)n1` here?
The IC50 was greater than 100000 nM.

What about the IC50 [5] of the same compound?
The IC50 was 62000 nM.

And the IC50 [6]?
The IC50 was 25000 nM.

And the IC50 [7]?
Its IC50 is greater than 100000 nM.

And the IC50 [8]?
The IC50 was 89000 nM.

What about the Kp at 18 h [9] of the same compound?
Its Kp at 18 h is 0.2.

With `CC(=O)Nc1cc(C(=O)O)cc(-c2ccccc2-c2cc(Cl)ccc2OCc2ccccc2)c1` as the compound, how does the IC50 [10] read?
Its IC50 is 10 nM.

For `CCC(=O)Nc1cc(C(=O)O)cc(-c2ccccc2-c2cc(Cl)ccc2OCc2ccccc2)c1`, which IC50 [10] is on record?
Its IC50 is 6.31 nM.

For `CCCOc1ccc(Cl)cc1-c1ccccc1-c1cccc(C(=O)O)n1`, which IC50 [10] is on record?
The IC50 was 251 nM.

Which IC50 [10] does the source give for `O=C(O)c1cccc(-c2cc(Cl)ccc2-c2cc(Cl)ccc2OCc2ccccc2)c1` here?
The IC50 was greater than 1000 nM.

Which IC50 [10] does the source give for `O=C(O)c1ccccc1-c1ccccc1-c1cc(Cl)ccc1OCc1ccccc1` here?
Its IC50 is 20 nM.

Which IC50 [10] does the source give for `O=C(O)c1ccc(-c2ccccc2-c2cc(Cl)ccc2OCc2ccccc2)cc1` here?
Its IC50 is 794 nM.

With `O=C(O)c1cccc(-c2ccccc2-c2cc(Cl)ccc2OCc2ccc(F)cc2)n1` as the compound, how does the IC50 [10] read?
The IC50 was 5.01 nM.

With `O=C(O)c1cc(-c2ccccc2-c2ccccc2OCc2ccccc2)ccc1Cl` as the compound, how does the IC50 [10] read?
The IC50 was 126 nM.

Which IC50 [10] does the source give for `Cc1cccc(-c2cc(Cl)ccc2OCc2ccccc2)c1-c1cccc(C(=O)O)c1` here?
The IC50 was 100 nM.

With `CC(C)C(=O)Nc1cc(C(=O)O)cc(-c2ccccc2-c2cc(Cl)ccc2OCc2ccccc2)c1` as the compound, how does the IC50 [10] read?
Its IC50 is 10 nM.

With `COCC(=O)Nc1cc(C(=O)O)cc(-c2ccccc2-c2cc(Cl)ccc2OCc2ccccc2)c1` as the compound, how does the IC50 [10] read?
Its IC50 is 3.98 nM.

For `O=C(O)c1cccc(-c2ccccc2-c2cc(Cl)ccc2OCC2CCCC2)n1`, which IC50 [10] is on record?
Its IC50 is 158 nM.

For `O=C(O)c1ccc(F)c(-c2ccccc2-c2ccccc2OCc2ccccc2)c1`, which IC50 [10] is on record?
The IC50 was 79.4 nM.

For `O=C(O)c1cccc(-c2ccccc2-c2cc(Cl)ccc2OCc2ccccc2F)n1`, which IC50 [10] is on record?
Its IC50 is 39.8 nM.

For `O=C(O)c1cccc(-c2ccccc2-c2ccc(Cl)cc2OCc2ccccc2)c1`, which IC50 [10] is on record?
Its IC50 is 316 nM.

Which IC50 [10] does the source give for `Cc1ccc(-c2cccc(C(=O)O)c2)c(-c2cc(Cl)ccc2OCc2ccccc2)c1` here?
Its IC50 is greater than 1000 nM.

For `Cc1ccc(-c2cc(Cl)ccc2OCc2ccccc2)c(-c2cccc(C(=O)O)c2)c1`, which IC50 [10] is on record?
Its IC50 is greater than 1000 nM.

For `O=C(O)c1cccc(-c2ccccc2-c2cc(Cl)ccc2OCc2c(F)cc(F)cc2F)n1`, which IC50 [10] is on record?
Its IC50 is 12.6 nM.

For `O=C(O)c1cccc(-c2ccccc2-c2cc(Cl)ccc2OCc2ccc(Br)cc2F)n1`, which IC50 [10] is on record?
The IC50 was 50.1 nM.

For `O=C(O)c1cccc(-c2ccccc2-c2cc(Cl)ccc2OCc2ccc(Cl)cc2F)n1`, which IC50 [10] is on record?
Its IC50 is 20 nM.

Which IC50 [10] does the source give for `CCCCOc1ccc(Cl)cc1-c1ccccc1-c1cccc(C(=O)O)n1` here?
Its IC50 is 100 nM.

With `O=C(O)c1cccc(-c2ccccc2-c2cc(Cl)ccc2OCc2ccc(F)cc2Cl)n1` as the compound, how does the IC50 [10] read?
Its IC50 is 63.1 nM.

With `O=C(O)c1cc(F)cc(-c2ccccc2-c2ccccc2OCc2ccccc2)c1` as the compound, how does the IC50 [10] read?
Its IC50 is 63.1 nM.

Which IC50 [10] does the source give for `O=C(O)c1cccc(-c2ccccc2-c2cc(Cl)ccc2OCc2ccc(F)cc2F)n1` here?
The IC50 was 3.98 nM.

Which IC50 [10] does the source give for `Cc1c(C(=O)O)cccc1-c1ccccc1-c1ccccc1OCc1ccccc1` here?
Its IC50 is 501 nM.

With `O=C(O)c1cccc(-c2ccccc2-c2cc(Cl)ccc2OCc2ccccc2)n1` as the compound, how does the IC50 [10] read?
The IC50 was 10 nM.

Which IC50 [10] does the source give for `CCCC(=O)Nc1cc(C(=O)O)cc(-c2ccccc2-c2cc(Cl)ccc2OCc2ccccc2)c1` here?
The IC50 was 2 nM.

With `O=C(O)c1cccc(-c2ccccc2-c2ccccc2OCc2ccccc2)c1` as the compound, how does the IC50 [10] read?
Its IC50 is 20 nM.
